Values after ≈ are worked out from the molar mass of the structure shown.
Columns and labels:
[1] = Cytotoxicity against L929 cells, MTT cell viability assay (ISO 10993-5:2009(E)); type: cell-based; settings: mouse, L929 mouse fibroblast cells; for viability at 24 h, 5 µg/mL / viability at 24 h, 25 µg/mL / viability at 24 h, 50 µg/mL / viability at 24 h, 125 µg/mL / viability at 24 h, 250 µg/mL / viability at 24 h, 500 µg/mL / viability at 24 h, 1000 µg/mL: read-out: viability of L929 cells (% of viable cells); for CC50 at 24 h: 50% cell proliferation inhibition, L929 cells
Source text: Since T. gondii is an obligate intracellular parasite that requires invasion of mammalian host cells to proliferate, compounds that inhibit parasite growth might be toxic to host cells as well. Therefore, as an initial indicator for host cell toxicity, we firstly evaluated compounds 5–16 for their ability to inhibit the growth of mouse fibroblast (L929) cells line according to the international standards: ISO 10993-5:2009(E).
To calculate the reduction of viability compared to the untreated blank the equation was used: viability (%) = 100% × sample OD570 (the mean value of the measured optical density of the treated cells)/blank OD570 (the mean value of the measured optical density of the untreated cells). CC50—represents the concentration of tested compounds that was required for a 50% cell proliferation inhibition in vitro. The effect of the tested compounds on the cell lines was measured using MTT assay according to the international standard: ISO 10993-5:2009(E). CC50 values were determined based on the plotted curves using GraphPad Prism program (version 8.0.1).
Cell culture: the L929 mouse fibroblast (ATTC® CCL-1™) was routinely cultured in IMDM (Iscove’s Modified Dulbecco Medium, Biowest, Nuaille, France), supplemented with 10% HIFBS, 100 U/mL penicillin and 100 μg/mL streptomycin. Cells were trypsinized twice a week and seeded at a density of 1 × 10^6 per T25 cell culture flask and incubated for 24–48 h in a 37 °C and 10% CO2 to achieve a confluent monolayer.
Cell viability assay: Assays were performed according to international standards: ISO 10993-5:2009(E), Biological evaluation of medical devices, Part 5: Tests for in vitro cytotoxicity. Cell viability were evaluated using the tetrazolium salt [3-(4,5-dimethylthiazol-2-yl)-2,5-diphenyltetrazolium bromide] (Sigma) and mouse fibroblasts L929 cells. For this assay we used only the culture medium, RPMI 1640, without phenol red (Biowest) supplemented with 10% HIFBS, 2 mM L-glutamine (Sigma), 100 U/mL penicillin, 100 μg/mL streptomycin. Shortly after, a 1 × 10^4/well of L929 cells were placed into 96-well plates and incubated in 37 °C and 10% CO2. Afterwards, an old culture medium was replaced by 100 μL of compounds and drugs dilutions in culture medium and the cells were treated for 24 h. Moreover, cells were treated with a 4.0–0.03% concentration of DMSO and 1M NaOH as a compound and drugs solvent (data not shown). Then, 50 μL of 1 mg/mL of MTT solution in RPMI 1640 without phenol red was added to each well and incubated 2h (37 °C, 10% CO2). Next, cell culture medium was aspirated cautiously and 150 μL of DMSO was added to each well, the plates were gently mixed. Then 25 μL 0.1M glycine buffer (pH = 10.5) (Sigma) was added. The optical density at 570 nm on the ELISA reader (Multiskan EX, Labsystems, Vienna, VA, USA), was read. The results were expressed as a percentage of viability compared to untreated cells. All experiments were performed in triplicate. For comparison reasons, two compounds known from our previous studies (6 and 9) were included in the bioassay performed for compounds 5, 7, 8, 9–16.

[2] = Lipophilicity by HPLC (logkw extrapolation, OECD guideline); type: physicochemical; settings: Phenomenex Synergi 4 µm Polar-RP column, methanol:water, calibration with seven standards
Procedure: HPLC experiments were performed using a chromatograph equipped with an Elite LaChrom L-2130 gradient pump, L-2455 DAD detector, L-2300 column oven, and L-2200 autosampler (Hitachi-Merck, Darmstadt, Germany). The tested samples were applied into the Phenomenex Synergi 4 µm Polar-RP chromatographic column (Phenomenex, Torrance, CA, USA) (150 mm length, 4.6 mm i.d.). Mobile phases were degassed using a built-in membrane degasser.
Chromatographic analysis: 5 µL of each sample (0.1% methanolic solutions) was applied into the chromatographic column and chromatograms were developed at a flow rate of 1.0 mL min^−1 in the isocratic mode using various concentrations of methanol in the binary polar mobile phase: methanol:water (40:60, 45:55, 50:50, 55:45, 60:40, 65:35, and 70:30 (v/v)) Chromatograms were detected at 254 nm. All experiments were repeated in triplicate, and the final results were their arithmetic mean. Dead time was measured for uracil (Calbiochem—Merck, Darmstadt, Germany). All the experiments were performed at ambient temperature.
The chromatographic lipophilicity parameter (logkw) for 5–16 was obtained by the extrapolation of the retention parameter logk to pure water, according to the equation: logk = logkw − S × φ(1) where logkw is the value of the retention factor of a substance in pure water, S is the slope of the regression curve, and φ is the concentration (v/v) of methanol in the mobile phase.
Subsequently, logPHPLC parameters for 5–16 were calculated according to OECD guidelines, based on the equation obtained for seven standards with known lipohilicity parameters (logPo/w): logPo/w = 1.0239(± 0.03)·logkw − 0.1541(± 0.08); n = 7; r = 0.9976; se = 0.08; F = 1047.8(2)

[3] = test system: Toxoplasma gondii RH strain tachyzoites (ATCC PRA 310); assay: Influence on T. gondii proliferation in Hs27 cells, [3H]-uracil incorporation assay; type: cell-based; settings: for IC50: Toxoplasma gondii, HS27, 50% inhibition of T. gondii RH proliferation in vitro, Hs27 host cells, [3H]-uracil incorporation; for SR (selectivity ratio): ratio of CC50 (L929) to IC50 (T. gondii)
[4] = test system: Toxoplasma gondii tachyzoites; set-up: method as in PMID 30744161; settings: ref [19], cited from earlier work; for IC50: inhibition of T. gondii tachyzoite proliferation, previous study; for SR (selectivity ratio): ratio of CC50 to IC50, previous study

Compound	viability at 24 h, 5 µg/mL [1]	viability at 24 h, 25 µg/mL [1]	viability at 24 h, 50 µg/mL [1]	viability at 24 h, 125 µg/mL [1]	viability at 24 h, 250 µg/mL [1]	viability at 24 h, 500 µg/mL [1]	viability at 24 h, 1000 µg/mL [1]	CC50 at 24 h [1]	chromatographic logP [2]	IC50 [3]	SR (selectivity ratio) [3]	IC50 [4]	SR (selectivity ratio) [4]
Cc1nc[nH]c1C(=O)NNC(=S)Nc1cccc(F)c1 [Compound 6]	96.3%	97.3%	75.4%	64.8%	62.4%	52.3%	35.4%	885 µg/mL (≈ 3020 µM)	2.99	≥ 69 µg/mL	7.79	–	–
Cc1ccc(NC(=S)NNC(=O)c2[nH]cnc2C)cc1Cl [Compound 4]	–	–	–	–	–	–	–	–	–	–	–	18.62 µg/mL (≈ 57.5 µM)	4 fold
Cc1nc[nH]c1C(=O)NNC(=S)Nc1cccc([N+](=O)[O-])c1 [Compound 1]	–	–	–	–	–	–	–	–	–	–	–	14.78 µg/mL (≈ 46.1 µM)	18 fold
Cc1nc[nH]c1C(=O)NNC(=S)Nc1cccc(Cl)c1 [Compound 9]	93.9%	88.5%	75.3%	64.7%	56.7%	30.2%	8.47%	273 µg/mL (≈ 881 µM)	3.51	24.1 µg/mL (≈ 78 µM)	11.30	–	–
Cc1nc[nH]c1C(=O)NNC(=S)Nc1ccc(F)cc1 [Compound 7]	103%	103%	89.2%	83.1%	69.9%	61.4%	48.7%	977 µg/mL (≈ 3330 µM)	2.8	≥ 69 µg/mL	8.86	–	–
COc1cc(Cc2cnc(N)nc2N)cc(OC)c1OC [trimethoprim, 2,4-diamino-5-(3,4,5-trimethoxybenzyl)pyrimidine, reference compound]	–	–	–	–	–	–	–	> 32 µg/mL	–	12.1 µg/mL (≈ 41.8 µM)	>2.64	–	–
Cc1nc[nH]c1C(=O)NNC(=S)Nc1ccc(Cl)cc1 [Compound 10]	103%	96.3%	70.3%	63.6%	56.6%	23.6%	13.6%	231 µg/mL (≈ 746 µM)	3.44	≥ 69 µg/mL	3.15	–	–
Cc1nc[nH]c1C(=O)NNC(=S)Nc1cccc(Br)c1 [Compound 12, 4-(3-Bromophenyl)-1-(4-methylimidazol-5-oyl)thiosemicarbazide]	95.3%	89%	74.4%	65.7%	56.8%	20.2%	7.52%	238 µg/mL (≈ 671 µM)	3.71	15.6 µg/mL (≈ 44.2 µM)	–	–	–
Cc1nc[nH]c1C(=O)NNC(=S)Nc1ccc(Br)cc1 [Compound 13, 4-(4-Bromophenyl)-1-(4-methylimidazol-5-oyl)thiosemicarbazide]	93.5%	82%	64.1%	56.6%	51.1%	42.1%	30.8%	224 µg/mL (≈ 631 µM)	3.64	14.6 µg/mL (≈ 41.1 µM)	–	–	–
Cc1nc[nH]c1C(=O)NNC(=S)Nc1cccc(Cl)c1 [Compound 3]	–	–	–	–	–	–	–	–	–	–	–	25.70 µg/mL (≈ 83 µM)	10 fold
Cc1nc[nH]c1C(=O)NNC(=S)Nc1ccccc1F [Compound 5]	98.1%	97.3%	74.8%	87%	69.3%	64.1%	45.8%	455 µg/mL (≈ 1550 µM)	2.8	≥ 69 µg/mL	6.61	–	–
Cc1nc[nH]c1C(=O)NNC(=S)Nc1ccccc1I [Compound 14, 4-(2-Iodophenyl)-1-(4-methylimidazol-5-oyl)thiosemicarbazide]	95.2%	92.8%	83.7%	65.4%	44.5%	26.1%	25%	199 µg/mL (≈ 496 µM)	3.23	20.3 µg/mL (≈ 50.6 µM)	–	–	–
Cc1nc[nH]c1C(=O)NNC(=S)Nc1ccc([N+](=O)[O-])cc1 [Compound 2]	–	–	–	–	–	–	–	–	–	–	–	21.62 µg/mL (≈ 67.5 µM)	16 fold

From article PMC6514996, “Discovery of Potent and Selective Halogen-Substituted Imidazole-Thiosemicarbazides for Inhibition of Toxoplasma gondii Growth In Vitro via Structure-Based Design” (Molecules, 2019)
